{"source": "patent US20100022600A1", "about": "“METHODS AND COMPOSITIONS FOR TREATING CENTRAL NERVOUS SYSTEM TUMORS” (priority 2006, published 2010)", "key": {"[1]": {"tested_on": "MMP-9", "assay": "MMP-9 expression in vivo (western blot, immunohistochemistry)", "design": "species or system rat", "method": "For western-blot analysis, tumor-containing hemispheres were homogenized in Tris-HCl [50 mM Tris-HCl pH8, 120 mM NaCl, 5 mM EDTA, 0.5% (v/v) NP-40, […] phenylmethylsulfonyl fluoride (PMSF)] and sonicated. Homogenates were collected by centrifugation (15 min 11000 g. 4° C.) and protein concentration in the supernatant was determined using the Bio-Rad Protein Assay (Biorad, Munich, Germany). Lysates (20-40 μg) were separated on a 7% (w/v) sodium dodecyl sulfate (SDS)-polyacrylamide gel under reducing conditions and transferred to a PVDF membrane (Millipore, Bedford, Mass., USA). Non-specific binding was blocked by incubation with 5% (w/v) skimmed milk in TBS for 2 h. Following incubation with the primary antibody overnight at 4° C. [rabbit anti-BAX 1:1000, rabbit anti-cleaved caspase-3 1:1000, mouse […] 1:1000, goat anti-MMP-9 1:1000 in TBS containing 0.1% (v/v) Tween 20] membranes were washed three times in TBS/Tween for 5 min and subsequently incubated for 120 min in TBS/Tween containing secondary peroxidase-conjugated antibody at room temperature (anti-rabbit 1:1000, anti-mouse 1:1000; anti-goat 1:1000 respectively). Signals were visualized by chemoluminescence (Pierce, Rockford, Ill., USA) and band intensities were quantified with NIH Image 1.62 software (Bethesda, Md., USA). Frozen brain sections were first blocked with 5% normal goat serum or normal horse serum in PBS and subsequently incubated with rabbit anti-Ki-67 antibody (1:200 dilution), mouse anti-CS-56 (1:100 dilution), goat anti-MMP-9 (1:100 dilution) or rabbit anti-cleaved caspase-3 antibody (1:200 dilution) at 4° C. overnight. Sections were washed extensively with PBS before incubation with secondary antibodies. Incubation was carried at room temperature for 1 h. After washing with PBS three times, stained slides were mounted with PBS/glycerol (1:1) and viewed under a fluorescent microscope (Leica, Germany)."}, "[2]": {"tested_on": "Rat C6 glioma cells", "assay": "MTT viability assay, rat C6 glioma cells", "type": "cell-based", "conditions": "10 and 30 μM; concentration- and time-dependent; significant at 5 d and 7 d (30 μM) and at 7 d (10 μM)", "method": "Rat C6 glioma cells were grown in DMEM and human glioma cells (U87, A172) in RPMI, supplemented with 10% (v/v) fetal calf serum, 100 U/mL penicillin and 100 U/mL streptomycin in a 5% CO2 atmosphere. Primary astrocyte cultures were prepared as described previously (J Neurosci 1998; 18: 4451-60) and grown in DMEM, supplemented with 2.5% (v/v) fetal calf serum, 100 U/mL penicillin and 100 U/mL streptomycin in a 5% CO2 atmosphere. […] Experiments were performed in triplicate."}, "[3]": {"tested_on": "C6 glioma cells injected in rat striata", "assay": "C6 rat glioma model, tumor volume and histology", "type": "in vivo", "conditions": "for reduction of tumor volume compared to vehicle: 21 d", "method": "Spraque-Dawley rats (Charles River Laboratories, Sulzfeld, Germany), weighting 200-250 g were used. Animals were housed in groups of two under standard conditions at a temperature of 22° C.±1 and a 12-h light-dark cycle with free access to food and water. Experiments were carried out in accordance with the declaration of Helsinki and were approved by the local ethical committee for animal experiments. Before implantation, 85-90% confluent C6 cells were trypsinized, rinsed with DMEM+10% fetal calf serum, and centrifuged at 1000 rpm for 4 min. The cell pellet was resuspended in DMEM and placed on ice. Concentration of viable cells was adjusted to 1×10^5 cells/1 μl of DMEM. Each rat was anesthetized and placed in a stereotactic frame (David Kopf Instruments, Tujunga, Calif., USA), a hole was drilled at AP 0.0, R -3.0 relative to bregma according to the stereotaxic atlas of […], 1963). Tumor cells were injected at a rate of 0.5 μl/s, using a 2 μl Hamilton (#2701) syringe (Reno, Nev., USA) with a 26 s-gauge needle mounted on a stereotactic holder at a depth of 5 mm. […] For intracerebral administration of pio/vehicle (DMSO), the tip of an Alzet-brain-infusion-kit (Cupertino, Calif., USA) was placed in a depth of 5 mm, connected to a 2ML4 Alzet osmotic pump (Cupertino, Calif., USA). Drug administration began 4 h after surgery. […] The pumps were filled with 20 μM pio solved in PBS or vehicle (DMSO, 0.1% final concentration) solved in PBS. Animals were randomly distributed in two groups, treated with pio filled pumps (n=26) or vehicle filled pumps (n=26). Thereafter skull was cleaned and the incision sutured. […] Control animals received Purina chow without additions. Rats were allowed free access to the chow. Tumors were allowed to grow and animals were weighed daily. […] Brains were serially sectioned at 10 μm using a cryostat (Leica, Jung CMI800, Germany). Sections for hematoxylin-eosin (HE)-staining were placed onto uncoated slides. Sections intended for use in immunoreactivity assays were placed onto coded slides (Fisher finest, premium; Houston, Tex., USA). Sections were routinely HE-stained for histomorphological assessment and measurement of tumor volume as well as immunohistochemically processed for Ki-67-, BAX, cleaved caspase-3-expression, MMP9, CS-56 and BrdU-incorporation. Images of HE-stained sections containing the tumor were captured with a SPOT model 1.3 camera (Diagnostic Instruments, Inc., Sterling Heights, Mich., USA) using a 1× objective and images processed using NIH Image 1.62 software (Bethesda, Md., USA). The tumor area of each section was manually outlined by a blinded observer using the freehand selection tool to measure tumor area in mm^2. The area was then multiplied by the section thickness (10 μm section, 10 sections/HE stain) to achieve a section volume measurement. Volumes of all sections were added to calculate the total volume of each tumor. Tumor volumes for five/six animals of every group were measured."}, "[4]": {"tested_on": "C6 glioma tumor cells", "assay": "BrdU incorporation in vivo", "design": "species or system rat", "conditions": "14 d", "method": "At thirteen days of treatment animals were intraperitoneally injected with 300 mg/kg of 5-bromodeoxyuridine (BrdU; Sigma, St. Louis, Mo.), a thymidine analog that incorporates into the DNA of dividing cells during S phase and can be detected immunohistochemically. Twenty-four hours later, these animals were anesthetized and perfused with phosphate-buffered saline (PBS). Brains were dissected, frozen, cut and immunostained in the following manner: Sections were fixed in 4% paraformaldehyde, washed in PBS, and incubated in 2 N HCl for 10 min at room temperature. Sections were again washed in PBS and incubated in BrdU primary antibody (rat monoclonal 1:100, Abcam, Cambridge, UK) in PBS containing 5% normal goat serum overnight at 4 C. After washing with PBS, sections were incubated in rhodamine-labeled anti-rat secondary antibody (1:100, Jackson, West Grove, Pa., USA) in PBS containing 5% normal goat serum for 1 h at room temperature. The number of dividing cells present in the tumor of these BrdU-stained sections was counted and compared to total amount of tumor cells stained with DAPI."}}}
{"smiles": "CCc1ccc(CCOc2ccc(CC3SC(=O)NC3=O)cc2)nc1", "note": "(stereo not drawn) [pioglitazone, 5-[4-[2-(5-ethylpyridin-2-yl)ethoxyl]benzyl]thiazolidine-2,4-dione]", "values": [{"measurement": "MMP-9 positive staining (immunoreactivity)", "setting": "[1]; tumor margins and surrounding healthy brain tissue", "result": "reduced MMP-9 positive staining"}, {"measurement": "MMP-9 expression (western blot)", "setting": "[1]; whole-hemisphere lysates", "result": "almost completely suppressed"}, {"measurement": "reduction of MMP-9 expression (densitometry)", "setting": "[1]; whole-hemisphere lysates", "result": 81, "unit": "%"}, {"measurement": "cellular viability, effect in words", "setting": "[2]", "result": "significantly reduced the cellular viability"}, {"measurement": "tumor volume compared to vehicle, in words", "setting": "[3]; intracerebral, 3 and 6 days", "result": "no significant differences"}, {"measurement": "tumor volume compared to vehicle, in words", "setting": "[3]; intracerebral, 9, 14 and 21 days", "result": "decreased significantly"}, {"measurement": "reduction of tumor volume compared to vehicle", "setting": "[3]; intracerebral, pio 20 μM via osmotic pump", "result": 83, "unit": "%"}, {"measurement": "reduction of tumor volume compared to vehicle", "setting": "[3]; oral treatment (in chow)", "result": 77, "unit": "%"}, {"measurement": "reduction of tumor volume compared to vehicle", "setting": "[3]; oral treatment (in chow), listed as pio", "result": 76.9, "unit": "%"}, {"measurement": "histological evaluation of tumor margins and invasiveness", "setting": "[3]; pio treated in vivo gliomas", "result": "more defined tumor margins and decreased invasiveness"}, {"measurement": "BrdU-incorporation", "setting": "[4]", "result": "reduced"}, {"measurement": "percentage of BrdU positive cells", "setting": "[4]", "result": "significantly lower"}]}
